For orientation: pIC50 means −log10 of the IC50, conventionally taken in molar units. Read a low pIC50 as a high IC50. For orientation: melting point means the temperature, or range, at which the solid turns liquid.

The source of these data is US20110070190A1 (Roche Palo Alto LLC, priority 2009, published 2011).

pIC50: −log10 of the molar value.

In data set [1] the target is T1, HCV polymerase (NS5B570n-Con1) (Hepatitis C virus genotype 1b, UniProt Q9WMX2).
T1 construct: a 21 amino acid C-terminal deletion of full-length HCV polymerase; made in house; host or cells: E. coli BL21(DE3) pLysS, plasmid pET17b
Kind of data set: HCV NS5B RNA polymerase activity (incorporation of radiolabeled nucleotide into acid insoluble RNA). Type of data set: biochemical, HCV Con1 strain. The procedure: The enzymatic activity of HCV polymerase (NS5B570n-Con1) was measured as the incorporation of radiolabeled nucleotide monophosphates into acid insoluble RNA products. Unincorporated radiolabeled substrate was removed by filtration and scintillant was added to the washed and dried filter plate containing radiolabeled RNA product. The amount of RNA product generated by NS5B570n-Con1 at the end of the reaction was directly proportional to the amount of light emitted by the scintillant.
The HCV polymerase used in the enzymatic activity assay is a 21 amino acid C-terminal deletion of full-length HCV polymerase derived from HCV Con1 strain, genotype 1b (GenBank accession number AJ242654) (NS5B570n-Con1). The NS5B570n-Con1 was sub-cloned downstream to the T7 promoter of the plasmid expression construct pET17b and transformed into E. coli strain BL21(DE3) pLysS for protein expression. A single colony was used to start an innoculum for a 10 L culture in LB media supplemented with 100 μg/mL ampicillin at 37° C. Protein expression was induced by the addition of 0.25 mM isopropyl-β-D-thiogalactopyranoside (IPTG) when the optical density of the culture at […] was 0.8. Induction of protein expression was carried out at 30° C. for 16 h after which the cells were harvested by centrifugation. NS5B570n-Con1 was purified to homogeneity using a three-column purification protocol including subsequent column chromatography on Ni-NTA, SP-Sepharose HP and Superdex 75 resins.
Enzymatic reactions in the presence of cIRES RNA template (see paragraph [00213]) contained 20 nM cIRES RNA, 20 nM NS5B570n-Con1 enzyme, 0.5 μCi of tritiated UTP (Perkin Elmer catalog no. TRK-412; specific activity: 30 to 60 Ci/mmol;), 1 μM each ATP, CTP, and GTP, 40 mM Tris-HCl pH 8.0, 40 mM NaCl, 4 mM DTT (dithiothreitol), 4 mM MgCl2, 5 μl of compound serial diluted in DMSO, and nuclease-free water to a final reaction volume of 50 μl. Enzymatic reactions in the presence of poly A RNA template (see paragraph [00213]) contained 20 nM Poly A:oligo(rU)16 premixed (see section 0004), 20 nM NS5B570n-Con1 enzyme, 1 μCi of tritiated UTP (Perkin Elmer catalog no. TRK-412; specific activity: 30 to 60 Ci/mmol), 40 mM Tris-HCl pH 8.0, 40 mM NaCl, 4 mM DTT (dithiothreitol), 4 mM MgCl2, 5 μl of compound serial diluted in DMSO, and nuclease-free water to a final reaction volume of 50 μl. Reaction mixtures were assembled in 96-well filter plates (cat #MADVN0B, Millipore Co.) and incubated for 2 h at 30° C. Reactions were stopped by addition of 10% final (v/v) trichloroacetic acid and incubated for 40 min at 4° C. Reactions were filtered, washed with 8 reaction volumes of 10% (v/v) trichloroacetic acetic acid, 4 reaction volumes of 70% (v/v) ethanol, air dried, and 25 μl of scintillant (Microscint 20, Perkin-Elmer) was added to each reaction well.
Two RNA templates were used to assay compounds described herein. The cIRES RNA template was 377 nucleotide long and consisted of a partial complementary sequence (36 nucleotides) of the core protein, followed by 341 nucleotide of the complementary sequence of the internal ribosome entry site. The poly A RNA template (GE Amersham catalog number 27-4110) was a homopolymeric RNA pre-annealed to a oligo(rU)16 primer at a molar ratio of 3-to-1 (primer-template).
The amount of light emitted from the scintillant was converted to counts per minute (CPM) on a Topcount® plate reader (Perkin-Elmer, Energy Range: Low, Efficiency Mode: Normal, Count Time: 1 min, Background Subtract: none, Cross talk reduction: Off).
Data was analyzed in Excel® (Microsoft®) and ActivityBase® (Idbs®). The reaction in the absence of enzyme was used to determine the background signal, which was subtracted from the enzymatic reactions. Positive control reactions were performed in the absence of compound, from which the background corrected activity was set as 100% polymerase activity. All data was expressed as a percentage of the positive control. […]

In data set [2] the test system is HCV replicon cells (2209-23), genotype 1b replicon in human hepatoma Huh7 cells. Kind of data set: HCV replicon assay (Renilla luciferase reporter). Type of data set: cell-based, HCV genotype 1b. Particulars: Hepatitis C virus, Huh-7, 72 h; 2209-23 cells, three days incubation. (Replicon systems follow genome replication, usually without infectious particles.)
A further data set relates to HCV. Particulars: cited from earlier work.

For `Cc1ccc(Cn2cnc(=O)c3sc(-c4ccc(-c5cc6nc(C)cc(N)n6n5)cc4)cc32)cc1` [Compound I-38, 6-[4-(7-Amino-5-methyl-pyrazolo[1,5-a]pyrimidin-2-yl)-phenyl]-1-(4-methyl-benzyl)-1H-thieno[3,2-d]pyrimidin-4-one], the values for the negative logarithm of the IC50 (pIC50) in data set [1] and in data set [2] were 6.68 and 7.33, respectively.

As for `Cc1cc(N)n2nc(-c3ccc(-c4cc5c(s4)c(=O)ncn5Cc4ccc(Cl)cc4)cc3Cl)cc2n1` [Compound I-2, 6-[4-(7-Amino-5-methyl-pyrazolo[1,5-a]pyrimidin-2-yl)-3-chloro-phenyl]-1-(4-chloro-benzyl)-1H-thieno[3,2-d]pyrimidin-4-one], the pIC50 in data set [1] was 8.40; in data set [2], 8.39.

For the compound `NC(=O)c1ncn([C@@H]2O[C@H](CO)[C@@H](O)[C@H]2O)n1` [ribavirin, 1-((2R,3R,4S,5R)-3,4-Dihydroxy-5-hydroxymethyl-tetrahydro-furan-2-yl)-1H-[1,2,4]triazole-3-carboxylic acid amide], the “effect on serum levels of HCV-RNA” value in the data set on HCV (monotherapy / sole treatment) was “does not lower serum levels of HCV-RNA”. Also, in the data set on HCV (monotherapy), the “patients with serum amino transferase levels reduced to normal” value is recorded as 40%.

Consider `O=c1ncn(Cc2ccc(Cl)cc2)c2cc(-c3ccc(OCc4ccccn4)cc3)sc12` [Compound I-28, 1-(4-Chloro-benzyl)-6-[4-(pyridin-2-ylmethoxy)-phenyl]-1H-thieno[3,2-d]pyrimidin-4-one], for which the melting point is 233 to 235 °C. In data set [1], this compound showed a negative logarithm of the IC50 (pIC50) of 7.29.
